Key:
CMTR2 [1] = molecular target: T1, CMTR2 (Mus musculus, UniProt Q8BWQ4); experiment: Proteomics target identification (anti-cholesterol IP and chemical pulldown) from 4T1 lysate; format: binding
T1 construct: endogenous in cells; host or cells: 4T1 cells (lysate)
T1 sequence (Q8BWQ4 1-767): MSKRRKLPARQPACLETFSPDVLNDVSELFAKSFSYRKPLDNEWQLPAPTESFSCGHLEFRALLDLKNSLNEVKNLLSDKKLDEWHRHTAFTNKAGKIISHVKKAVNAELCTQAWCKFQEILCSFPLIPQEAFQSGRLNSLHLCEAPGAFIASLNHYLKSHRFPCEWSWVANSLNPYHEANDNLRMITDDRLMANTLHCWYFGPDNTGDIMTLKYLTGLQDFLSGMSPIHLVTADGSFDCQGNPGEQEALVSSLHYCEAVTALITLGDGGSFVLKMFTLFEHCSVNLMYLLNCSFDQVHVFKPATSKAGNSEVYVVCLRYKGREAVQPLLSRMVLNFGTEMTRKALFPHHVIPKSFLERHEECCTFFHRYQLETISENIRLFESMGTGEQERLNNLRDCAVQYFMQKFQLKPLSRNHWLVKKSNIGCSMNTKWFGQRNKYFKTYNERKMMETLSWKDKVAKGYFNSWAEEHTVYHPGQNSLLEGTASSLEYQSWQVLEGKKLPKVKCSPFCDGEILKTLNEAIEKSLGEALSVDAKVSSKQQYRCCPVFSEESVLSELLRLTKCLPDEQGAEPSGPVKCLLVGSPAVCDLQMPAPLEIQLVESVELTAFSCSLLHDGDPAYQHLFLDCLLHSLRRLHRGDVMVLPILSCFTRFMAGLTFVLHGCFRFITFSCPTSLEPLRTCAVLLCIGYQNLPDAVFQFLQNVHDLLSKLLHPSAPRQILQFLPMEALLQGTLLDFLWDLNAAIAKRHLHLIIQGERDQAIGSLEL
Method: (§1) Cap-specific mRNA (nucleoside-2′-O-)-methyltransferase 2 (CMTR2) is an enzyme that methylates at the 2′-O position of the second transcribed nucleotide of mRNAs.
In this example, two different proteomics approach were used to identify the target of Compound 1: (i) an anti-drug antibody (binds to cholesterol in Compound 1) and (ii) Compound A-1, where both (i) and (ii) were used to precipitate targets from 4T1 lysates. The 4T1 cell lysate was treated with pegylated Compound 1 for 20 hours. The 4T1 cells lysate was, independently, combined with the proteins of Table A or treated with Compound 1 and then combined with the proteins of Table A. Precipitated proteins were digested into peptides and identified using LC-MS/MS. Table A provides a summary of the proteins identified from both approaches that were enriched in Compound 1 samples above the background.

CMTR2 [2] = molecular target: T1, CMTR2; experiment: Binding of CMTR2 to Compound 1 by ELISA
Text: as §1

4T1 cells [3] = experiment: CMTR2 levels in 4T1 cells upon treatment; format: cell-based
Text: as §1
Alternatively, the unmethylated mRNA could also be recognized by toll-like receptors (TLR) like TLR3. Both of these would trigger many interferon regulatory factors (IRFs) leading to a type-I interferon antiviral response. The interferons can induce interferon stimulated genes (ISGs) such as interferon induced tetratricopeptide repeat protein 1 (IFIT1), which binds to unmethylated mRNA with high affinity. Furthermore, the immune system would be activated by the interferons. Additionally, the unmethylated mRNA could be secreted out from the tumor cells resulting in B-cell activation.

4T1 cells [4] = experiment: Interferon pathway / anti-viral response in 4T1 cells (RT-q-PCR, iBlot); format: cell-based
Method: RT-q-PCR was performed with RNA extracted from 4T1 cells treated with 30 μM of Compound 1 or vehicle for 24 h. […] The result is representative of n=3.
See, FIG. 16. The unmethylated mRNA generated due to inhibition of CMTR2 activity leads to recognition by sensors like MDA5 and TLR3 in conjunction with adapters like TRIF.

4T1 tumors = experiment: 4T1 breast tumors in mice in vivo; design: species or system BALB/c mice
Lewis lung carcinoma = experiment: Immunocompetent Lewis lung carcinoma model; format: in vivo, mice
Text: This model was therefore used to test whether the activation of both T cells, using a PD1 inhibitor, and B cells, using Compound 1, results in synergy. In this experiment, four groups of mice models for immunocompetent Lewis lung carcinoma were utilized. The mice were, independently, intravenously treated with control, Compound 1, anti-PD-1, or Compound 1+ anti-PD-1 and tumor growth monitored for at least 28 days post-tumor induction. The following table describes the treatments utilized in the experiment.

4T1 cells [5] = experiment: Intracellular distribution of platinum and intact drug in 4T1 cells (AAS, RPHPLC); format: cell-based; conditions: 50 μM
Method: The remaining insoluble proteins were resuspended in RIPA lysis buffer. The leftover genomic DNA (gDNA) pellet was treated with methanol to dissociate any non-covalently bound platinum from the gDNA. All the fractions were assayed by atomic absorption spectroscopy (AAS) to determine their Pt content. […] Data was generated from three independent biological experiments and error represents standard error of mean.

[6] = Pharmacokinetics after single i.v. bolus in tumor bearing mice; format: in vivo, female Balb/c mice; conditions: plasma, LC-MS/MS, noncompartmental analysis
Method: The pharmacokinetic (PK) profile of Compound 1 was evaluated following single intravenous (i.v bolus) dosing in tumor bearing female Balb/c mice. Tumor and plasma samples were collected at various time points, sparse sampling (n=3). Plasma concentrations were determined using LC-MS/MS and later subjected to Phoenix WinNonlin Noncompartmental analysis and PK parameters were estimated.

[7] = Single dose toxicity study in rats; format: in vivo; conditions: for ALP (Hepatic), Mean / ALT (Hepatic), Mean / AST (Hepatic), Mean / Creatinine (Renal), Mean / Hemoglobin (Anemia), Mean / Neutrophil (Neutropenia), Mean / Platelet (Thrombocytopenia), Mean: rat, in vivo
Method: Further, Compound 1 was also tested for safety end point evaluation in rats. […] Doses of 44 mg/kg, 88 mg/kg and 176 mg/kg were tested and 176 mg/kg was LTD.

[8] = tumors regressed by 20% on day three

CC(C)CCC[C@@H](C)[C@H]1CCC2C3CC=C4C[C@@H](OCCN(CC(=O)[O-])CC(=O)[O][Pt+]5[NH][C@@H]6CCCC[C@H]6[NH]5)CC[C@]4(C)C3CC[C@@]21C (stereo partly drawn) [Compound 1]
False discovery rate of CMTR2 as lead putative target (CMTR2 [1]; LC-MS/MS of proteins precipitated from 4T1 lysates): less than 1% | Binding to CMTR2 by proteomics (CMTR2 [1]; anti-cholesterol IP and chemical pulldown, 4T1 cell lysate): binds to CMTR2 | Binding of CMTR2 by ELISA (CMTR2 [2]): confirmed by ELISA | CMTR2 level in 4T1 cell lysate (4T1 cells [3]): dose-dependent upregulation of CMTR2 | mRNA expression of TLRs, IRF7 and IFN genes (4T1 cells [4]; 30 μM, 24 h, RT-q-PCR, n=3): robust increase in expression | Secreted (extracellular) INF-α levels (4T1 cells [4]; iBlot, FIG. 19A-19B): remarkably high | Intracellular INF-α levels (4T1 cells [4]; iBlot, FIGS. 18A-18B): significantly elevated | Innate anti-viral response (relative mRNA expression INF-α, IRF7, TRIF, TLR3) (4T1 cells [4]; varying concentration, FIG. 16): activation of the innate anti-viral response in a dose-dependent manner | IRF7 levels (4T1 cells [4]; varying concentrations, FIG. 17): increased levels in 4T1 cells in a dose-dependent manner | 4T1 tumor ablation in mice lacking B cells (4T1 tumors; 88 mg/kg, 2 cycles, T and B-cell knockout (SCID) mice, FIG. 26): 4T1 tumor ablation does not happen in mice lacking B cells | Tumor growth following re-implantation of cancer cells (4T1 tumors; 88 mg/kg, 2 cycles, animals with previous tumor regression, FIG. 27): No tumor growth occurs | Tumor growth inhibition with increasing doses (4T1 tumors; 4T1 breast cancer-bearing mice, FIG. 10): clear dose-dependent effect | Infiltrating immune cells in tumor sections (immunohistology) (4T1 tumors; 50% regressed tumors): increased IGKC levels, and increased infiltration of memory B cells (CD20+) and plasma B cells (CD138) | B cell biomarker transcripts IGKC and CD21 in tumor (RTPCR) (4T1 tumors; FIGS. 8B to 8E): increase in IGKC and CD21 | CD8a in tumor (RTPCR) (4T1 tumors; FIGS. 8B to 8E): increase in CD8a cells | 4T1 tumor growth (4T1 tumors; administered on days 1, 2, 6, and 7, female Balb/c mice): ablated 4T1 tumors | Body weight (4T1 tumors; administered on days 1, 2, 6, and 7, up to 29 days post-implantation): without any loss in body weight | Tumor size of established 4T1 tumors (4T1 tumors; cumulative dose of 176 mg/kg per cycle, 2 cycles, immunocompetent syngeneic BALB/c mice): tumor regression is observed | % B-cell in tumor by FACS (4T1 tumors; day 3): infiltrating the tumor | IFIT1 levels in plasma (dot-blot) (4T1 tumors; days 3, 4, 5, and 8): elevated on days 3 to 8 | INF-α levels in plasma (dot-blot) (4T1 tumors; days 3, 4, 5, and 8): elevated in plasma | B cell phenotype by FACS in draining lymph node and spleen (4T1 tumors; post-regression, spleen following rechallenge): increase in B cells with a reduction in Bregs | Tumor growth post rechallenge with cancer cells (immune memory) (4T1 tumors; reinjected with 4T1 cells twenty-five days post-regression, no additional treatment): absence of any tumor growth | IFN gene expression in 4T1 tumors (4T1 tumors; [8]): robust increase in expression | IRF3 and IRF7 gene expression in 4T1 tumors (4T1 tumors; [8]): increased expression is observed for IRF3 and IRF7 | Tumor growth (Lewis lung carcinoma; different dose regimens, compared with a MTD dose of oxaliplatin): significant tumor growth inhibition | CD8a levels (immuno-transcripts) (Lewis lung carcinoma; mouse, in vivo): no increase was seen in CD8a levels | Combination effect with PD1 immune checkpoint inhibitor (Lewis lung carcinoma; mouse, in vivo): synergizes with PD1 immune checkpoint inhibitor | IGKC signal (immuno-transcripts) (Lewis lung carcinoma; mouse, in vivo): increase in IGKC signal | Intracellular integrity (intact concentration by RPHPLC vs platinum by AAS) (4T1 cells [5]): remains intact intracellularly | Estimated AUC versus dose [6]: increased linearly with dose | Tolerability of the remaining doses ([7]; 44 mg/kg and 88 mg/kg, single intravenous infusion (30 min)): well tolerated without any significant clinical signs | ALP (Hepatic), Mean ([7]; 44 mg/kg): 107.60 U/L | ALT (Hepatic), Mean ([7]; 44 mg/kg): 30.00 U/L | AST (Hepatic), Mean ([7]; 44 mg/kg): 110.60 U/L | Creatinine (Renal), Mean ([7]; 44 mg/kg): 0.49 mg/dL | Hemoglobin (Anemia), Mean ([7]; 44 mg/kg): 15.84 g/dL | Neutrophil (Neutropenia), Mean ([7]; 44 mg/kg): 0.72 × 10^3 cells/μL | Platelet (Thrombocytopenia), Mean ([7]; 44 mg/kg): 1201.2 × 10^3 cells/μL | ALP (Hepatic), Mean ([7]; 88 mg/kg): 133.00 U/L | ALT (Hepatic), Mean ([7]; 88 mg/kg): 25.60 U/L | AST (Hepatic), Mean ([7]; 88 mg/kg): 106.00 U/L | Creatinine (Renal), Mean ([7]; 88 mg/kg): 0.49 mg/dL | Hemoglobin (Anemia), Mean ([7]; 88 mg/kg): 14.92 g/dL | Neutrophil (Neutropenia), Mean ([7]; 88 mg/kg): 0.80 × 10^3 cells/μL | Platelet (Thrombocytopenia), Mean ([7]; 88 mg/kg): 1376.2 × 10^3 cells/μL | ALP (Hepatic), Mean ([7]; 176 mg/kg): 209.5 U/L | ALT (Hepatic), Mean ([7]; 176 mg/kg): 42.50 U/L | AST (Hepatic), Mean ([7]; 176 mg/kg): 141.50 U/L | Creatinine (Renal), Mean ([7]; 176 mg/kg): 0.52 mg/dL | LTD ([7]; single intravenous infusion (30 min), both genders): 176 mg/kg
